# Patent US12436145B2, “Cryptic antibiotics and methods for detecting bioactive cryptic metabolites” (THE TRUSTEES OF PRINCETON UNIVERSITY, priority 2019, dated 2025)
# Where two headings read alike, the source gives them in different places.
# What was measured:
# [1] = system: collection of Gram-positive bacteria; assay: Antibacterial assays, Gram-positive panel; assay type: cell-based
# Protocol: (§1) Antibacterial assays with taylorflavin B (8) were carried out by Micromyx, LLC in accordance with methods from the Clinical and Laboratory Standards Institute. Minimal inhibitory concentrations were determined with the following strains: E. coli ATCC 25922, A. baumannii ATCC 19606, V. cholerae BAA-2163, N. gonorrhoeae ATCC 49226, P. aeruginosa ATCC 27853, K. pneumoniae MMX 214. S. aureus ATCC 29213, S. aureus MMX 2011, S. pneumoniae ATCC 49619, S. pyogenes MMX 6253, S. agalactiae MMX 6189, E. faecalis ATCC 29212, E. faecalis MMX 486, B. subtilis ATCC 6633, C. difficile ATCC 700057, B. fragilis ATCC 25285. Assays with taylorflavin A (7) were carried in-house according to the same protocols.
# A. baumannii ATCC 19606 = assay: Minimal inhibitory concentration (CLSI methods); assay type: cell-based, Acinetobacter baumannii
# Protocol: as §1
# S. pneumoniae ATCC 49619 = assay: Minimal inhibitory concentration (CLSI methods); assay type: cell-based; conditions: S. pneumoniae PSPP
# Protocol: as §1
# B. subtilis ATCC 6633 = assay: Minimal inhibitory concentration (CLSI methods); assay type: cell-based
# Protocol: as §1
# B. fragilis ATCC 25285 = assay: Minimal inhibitory concentration (CLSI methods); assay type: cell-based
# Protocol: as §1
# S. agalactiae MMX 6189 = assay: Minimal inhibitory concentration (CLSI methods); assay type: cell-based
# Protocol: as §1
# E. faecalis MMX 486 = assay: Minimal inhibitory concentration (CLSI methods); assay type: cell-based; conditions: E. faecalis VRE
# Protocol: as §1
# S. aureus ATCC 29213 = assay: Minimal inhibitory concentration (CLSI methods); assay type: cell-based
# Protocol: as §1
# [2] = system: N. gonorrhoeae ATCC 49226; assay: Minimal inhibitory concentration (CLSI methods); assay type: cell-based
# Protocol: as §1
# P. aeruginosa ATCC 27853 = assay: Minimal inhibitory concentration (CLSI methods); assay type: cell-based
# Protocol: as §1
# S. pyogenes MMX 6253 = assay: Minimal inhibitory concentration (CLSI methods); assay type: cell-based
# Protocol: as §1
# E. faecalis ATCC 29212 = assay: Minimal inhibitory concentration (CLSI methods); assay type: cell-based; conditions: E. faecalis VSE
# Protocol: as §1
# E. coli ATCC 25922 = assay: Minimal inhibitory concentration (CLSI methods); assay type: cell-based
# Protocol: as §1
# K. pneumoniae MMX 214 = assay: Minimal inhibitory concentration (CLSI methods); assay type: cell-based
# Protocol: as §1
# C. difficile ATCC 700057 = assay: Minimal inhibitory concentration (CLSI methods); assay type: cell-based
# Protocol: as §1
# S. aureus MMX 2011 = assay: Minimal inhibitory concentration (CLSI methods); assay type: cell-based; conditions: S. aureus MRSA
# Protocol: as §1
# E. coli = assay: In-house bioactivity assays of induced peaks and purified taylorflavins; assay type: cell-based
# V. cholerae BAA-2163 = assay: Minimal inhibitory concentration (CLSI methods); assay type: cell-based, Vibrio cholerae
# Protocol: as §1
# S. hiroshimensis A18 = assay: Validation of elicitor: disc diffusion assay of culture extracts on E. coli ZSR638; assay type: cell-based, Streptomyces hiroshimensis; conditions: S. hiroshimensis culture induced by 33 μM atenolol; uninduced control none
# Protocol: Seed cultures of S. hiroshimensis A18 were prepared as described for the HiTES screen above. […] A control flask was prepared containing the same volume of DMSO, rather than atenolol. The culture was incubated at 30° C./200 rpm. […] The organic phases were combined, divided in two, and dried in vacuo.
# For the disc diffusion assays, the dried control and atenolol-treated culture extracts were dissolved in 100 μL of DMSO each. Filter paper discs were infused with 30 μL of each sample, allowed to dry, and then placed on a soft LB agar (1% agarose) plate inoculated with E. coli ZSR638 at a concentration of 2×10^6 cells/mL. The agar plate was incubated at 37° C. for 10 h and then inspected visually.
# [3] = system: Gram-positive bacteria tested; assay: Cebulantin bioactivity screen; assay type: cell-based
# several Vibrio strains = assay: Cebulantin bioactivity screen (IC50); assay type: cell-based; conditions: range over several Vibrio strains
# β-galactosidase = conditions: cited from earlier work
smiles,measurement,setting,value
"Cn1nc2c(nc1=O)c(=O)n(C)c(=O)n2C [Taylorflavin B, 2-methylfervenulone]",growth inhibition of Gram-positive bacteria,[1],did not inhibit the growth
same,minimal inhibitory concentration (MIC),A. baumannii ATCC 19606,16 µg/mL
same,minimal inhibitory concentration (MIC),S. pneumoniae ATCC 49619,32 µg/mL
same,minimal inhibitory concentration (MIC),B. subtilis ATCC 6633,64 µg/mL
same,minimal inhibitory concentration (MIC),B. fragilis ATCC 25285,>64 µg/mL
same,minimal inhibitory concentration (MIC),S. agalactiae MMX 6189,32 µg/mL
same,minimal inhibitory concentration (MIC),E. faecalis MMX 486,64 µg/mL
same,minimal inhibitory concentration (MIC),S. aureus ATCC 29213,64 µg/mL
same,minimal inhibitory concentration (MIC),[2],4 µg/mL
same,minimal inhibitory concentration (MIC),P. aeruginosa ATCC 27853,>64 µg/mL
same,minimal inhibitory concentration (MIC),S. pyogenes MMX 6253,32 µg/mL
same,minimal inhibitory concentration (MIC),E. faecalis ATCC 29212,>64 µg/mL
same,minimal inhibitory concentration (MIC),E. coli ATCC 25922,16 µg/mL
same,minimal inhibitory concentration (MIC),K. pneumoniae MMX 214,>64 µg/mL
same,minimal inhibitory concentration (MIC),C. difficile ATCC 700057,>64 µg/mL
same,minimal inhibitory concentration (MIC),S. aureus MMX 2011,64 µg/mL
same,antibiotic activity / inhibition of E. coli growth,E. coli,more potent inhibitor
same,antibiotic activity / inhibition of E. coli growth,E. coli; listed as 8,antibiotic activity
same,minimal inhibitory concentration (MIC),V. cholerae BAA-2163,16 µg/mL
CC(C)NCC(O)COc1ccc(CC(N)=O)cc1 (centres unmarked) [atenolol],zone of inhibition on E. coli agar plates,S. hiroshimensis A18,clear zone of inhibition
C/C=C1\NC(=O)CNC(=O)[C@H](Cc2ccccc2)NC(=O)[C@H](NC(=O)[C@@H](NC(=O)[C@@H]2CCCN2C(=O)CN)[C@@H](C)CC)[C@H](C)SC[C@@H]2NC(=O)[C@H](NC1=O)[C@H](C)SC[C@@H](C(=O)N1CCC[C@H]1C(=O)N[C@@H]1CSC[C@@H](C(=O)O)NC(=O)[C@H](CO)NC(=O)[C@H](C(C)C)NC(=O)/C(=C/C)NC(=O)[C@H](CC(N)=O)NC(=O)[C@H](C)NC1=O)NC(=O)[C@@H]1C[C@@H](O)CN1C(=O)/C(=C/C)NC(=O)CNC(=O)[C@H](Cc1c[nH]c3ccccc13)NC2=O [cebulantin],IC50,V. anguillarum,29.1 ± 8.2 µM
same,IC50,V. parahaemolyticus,8.8 ± 2.1 µM
same,IC50,S. aureus,> 100 µM
same,IC50,P. aeruginose,47 ± 11.4 µM
same,IC50,V. cholerae,14.1 ± 2.4 µM
same,growth-inhibitory activity,[3],no growth-inhibitory activity
same,IC50,V. alginolyticus,24.5 ± 3.2 µM
same,IC50,B. subtilis,> 100 µM
same,IC50,V. ordahi,27 ± 5.4 µM
same,IC50,E. coli (ΔlptD),9.7 µM
same,IC50,several Vibrio strains,8.8 to 29.1 µM
OCc1cc2c([nH]c3ccccc32)c(C(O)CO)n1 (centres unmarked) [pyridindolol],inhibitory activity against β-galactosidase,β-galactosidase,inhibitory activity
